This note sets out measurements from US7807664B2, “4,4-difluoro-1,2,3,4-tetrahydro-5H-1-benzazepine derivative or salt thereof” (Astella Pharma Inc., priority 2003, dated 2010).

Assay [1] concerns the target T1, human V2 receptor (Homo sapiens, UniProt P30518).
T1 construct: expressed in transfected cells; host or cells: CHO cells (membrane preparation)
Briefly: V2 Receptor Binding Test. The following applies: human V2 expression CHO cell membrane, [3H]-vasopressin 0.5 nM, 25° C. 60 minutes; read-out: Affinity for V2 receptor Ki. On the procedure: (1) V2 Receptor Binding Test
A human V2 expression CHO cell membrane sample was prepared in accordance with the method of Tahara et al. (British Journal of Pharmacology, Vol. 125, pp. 1463-1470, 1998). A 2 μg portion of the membrane sample was incubated together with [^3H]-arginine vasopressin (to be referred simply to as “[^3H]-vasopressin” hereinafter) (0.5 nM, specific activity=75 Ci/mmol) and each compound to be tested (10^−10 to 10^−5 M) at 25° C. for 60 minutes in 250 μl in total volume of 50 mM Tris-HCl buffer (pH=7.4) containing 10 mM MgCl2 and 0.1% bovine serum albumin (BSA). Thereafter, free [^3H]-vasopressin and receptor-bonded [^3H]-vasopressin were separated using a cell harvester, and the receptor-bonded [^3H]-vasopressin was adhered onto a uni-filter plate GF/B glass filter. After sufficient drying, this was mixed with a microplate scintillation cocktail, amount of the receptor-bonded [^3H]-vasopressin was measured using top count and the inhibition ratio was calculated by the following formula. Inhibition ratio(%)=100−(C1−B1)/(C0−B1)×100 C1: Amount of [^3H]-vasopressin bonded to the membrane sample when [^3H]-vasopressin and the receptor membrane sample are treated in the coexistence of test compound having known concentration C0: Amount of [^3H]-vasopressin bonded to the membrane sample when [^3H]-vasopressin and the receptor membrane sample are treated in the absence of test compound B1: Amount of [^3H]-vasopressin bonded to the membrane sample when [^3H]-vasopressin and the receptor membrane sample are treated in the coexistence of excess amount of vasopressin (10^−6 M)
Concentration of each test compound by which the inhibition ratio becomes 50% (IC50 value) was calculated by the aforementioned formula, and affinity of the test compound for the receptor, namely dissociation constant (Ki), was calculated from this by the following formula. Dissociation constant(Ki)=IC50/(1+[L]/Kd) [L]: Concentration of [^3H]-vasopressin Kd: Dissociation constant of [^3H]-vasopressin against the receptor obtained by a saturation binding test

For assay [2], the target named is CYP2C9 (Homo sapiens, UniProt P11712). Briefly: Cytochrome P450 (2C9) Enzyme Inhibition Test. The settings on record: substrate 7-methoxy-4-(trifluoromethyl)cumarin, 37° C. 45 minutes; read-out: CYP2C9 inhibitory activity IC50. The format is in vitro ADME. On the procedure: (§1) Using a 96 well plate, 7-benzyloxy-4-(trifluoromethyl)cumarin as the substrate (5×10^−5 M), each test compound (from 4.9×10^−8 to 5×10^−5 M) and the enzyme (5×10^−9 M) were incubated at 37° C. for 30 minutes in 200 μl in total volume of 200 mM phosphate buffer (pH=7.4) containing 8.2 μM NADP+, 0.41 mM glucose-6-phosphate, 0.41 mM MgCl2 and 0.4 units/ml glucose-6-phosphate dehydrogenase. Thereafter, the reaction was stopped by adding 0.5 M 2-amino-2-hydroxymethyl-1,3-propanediol aqueous solution containing 80% acetonitrile, and the fluorescence intensity (excitation wavelength; 409 nm, fluorescence wavelength; 530 nm) was measured using a fluorescence plate reader. The inhibition ratio was calculated based on the following formula, and concentration of each test compound by which the inhibition ratio becomes 50% (IC50) was obtained. Inhibition ratio (%)=100−(C1−B1)/(C0−B1)×100 C1: Fluorescence intensity in the presence of test compound having known concentration, enzyme and substrate C0: Fluorescence intensity in the absence of test compound and in the presence of enzyme and substrate B1: Fluorescence intensity of blank well (5) Cytochrome P450 (2C9) Enzyme Inhibition Test
Chain of CYP2C9 (P11712 whole entry): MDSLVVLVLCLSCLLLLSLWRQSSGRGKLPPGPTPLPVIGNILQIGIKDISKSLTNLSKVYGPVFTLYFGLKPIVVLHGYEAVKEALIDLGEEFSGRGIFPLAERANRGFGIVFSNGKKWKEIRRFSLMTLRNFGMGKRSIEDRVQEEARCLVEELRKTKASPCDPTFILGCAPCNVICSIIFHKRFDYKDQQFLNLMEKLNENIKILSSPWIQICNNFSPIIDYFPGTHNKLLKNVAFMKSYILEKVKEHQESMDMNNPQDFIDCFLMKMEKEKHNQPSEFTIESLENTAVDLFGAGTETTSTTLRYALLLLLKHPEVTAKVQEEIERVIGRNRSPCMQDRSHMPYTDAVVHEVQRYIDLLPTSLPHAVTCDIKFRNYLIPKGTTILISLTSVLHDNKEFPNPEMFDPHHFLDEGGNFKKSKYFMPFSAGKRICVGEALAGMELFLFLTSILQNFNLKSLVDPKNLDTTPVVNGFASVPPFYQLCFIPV
(§2) This test was carried out in accordance with the method of Crespi et al. (Analytical Biochemistry, 248, 188-190, 1997).
Using a 96 well plate, 7-methoxy-4-(trifluoromethyl)cumarin as the substrate (7.5×10^−5 M), each test compound (from 4.9×10^−8 to 5×10^−5 M) and the enzyme (10^−8 M) were incubated at 37° C. for 45 minutes in 200 μl in total volume of 200 mM phosphate buffer (pH=7.4) containing 8.2 μM NADP+, 0.41 mM glucose-6-phosphate, 0.41 mM MgCl2 and 0.4 units/ml glucose-6-phosphate dehydrogenase. Thereafter, the reaction was stopped by adding 0.5 M 2-amino-2-hydroxymethyl-1,3-propanediol aqueous solution containing 80% acetonitrile, and the fluorescence intensity (excitation wavelength; 409 nm, fluorescence wavelength; 530 nm) was measured using a fluorescence plate reader. The inhibition ratio was calculated based on the same formula of aforementioned (4), and concentration of each test compound by which the inhibition ratio becomes 50% (IC50) was obtained.

Assay [3] has as its target CYP3A4 (Homo sapiens, UniProt P08684). Briefly: Cytochrome P450 (3A4) Enzyme Inhibition Test. The following applies: substrate 7-benzyloxy-4-(trifluoromethyl)cumarin, 37° C. 30 minutes; read-out: CYP3A4 inhibitory activity IC50. The assay is classed as in vitro ADME. On the procedure:
(4) Cytochrome P450 (3A4) Enzyme Inhibition Test
as §2, §1

For assay [4], the system named is male Wistar rats. Kind of assay: Antidiuretic Test (Intravenous Administration). The assay is classed as in vivo. The settings on record: rat, 0.3 mg/kg intravenous, water loading 30 ml/kg 15 minutes later; for Urine excretion ratio (%) After 1 hour: urine until 1 hour; for Urine excretion ratio (%) After 2 hours: urine until 2 hours. On the procedure: (2) Antidiuretic Test (Intravenous Administration)
Five animals per group of male Wistar rats (10 to 12 weeks of age) were used in the test. The compound of Example 3 was intravenously administered to group A at a dose of 0.3 mg/kg, and the compound of Example 9 to group B at a dose of 0.3 mg/kg, both after dissolving in a solvent (physiological saline containing DMSO), and the solvent alone at a dose of 1 ml/kg to group C as a control, and then 30 ml/kg of distilled water was orally administered by force 15 minutes thereafter (water loading). Urine samples until 2 hours after the water loading were collected using a metabolism cage, and the amount of urine when the water loading amount was defined as 100% was calculated as the urine excretion ratio. In this connection, average value of the urine excretion ratio until after 1 hour and the urine excretion ratio until after 2 hours in each group was used in the evaluation.

T1 sequence (P30518 whole entry): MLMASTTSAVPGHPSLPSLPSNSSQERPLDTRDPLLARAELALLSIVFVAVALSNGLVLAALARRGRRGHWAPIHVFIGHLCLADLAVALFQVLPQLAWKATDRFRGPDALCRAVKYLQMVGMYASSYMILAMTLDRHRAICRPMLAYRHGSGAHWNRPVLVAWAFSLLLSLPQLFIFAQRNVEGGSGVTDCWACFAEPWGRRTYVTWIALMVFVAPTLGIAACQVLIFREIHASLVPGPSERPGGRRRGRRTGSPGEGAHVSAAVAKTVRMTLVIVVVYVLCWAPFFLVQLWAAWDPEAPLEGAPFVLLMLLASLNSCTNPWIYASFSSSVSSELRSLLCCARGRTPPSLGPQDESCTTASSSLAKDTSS
Chain of CYP3A4 (P08684 whole entry): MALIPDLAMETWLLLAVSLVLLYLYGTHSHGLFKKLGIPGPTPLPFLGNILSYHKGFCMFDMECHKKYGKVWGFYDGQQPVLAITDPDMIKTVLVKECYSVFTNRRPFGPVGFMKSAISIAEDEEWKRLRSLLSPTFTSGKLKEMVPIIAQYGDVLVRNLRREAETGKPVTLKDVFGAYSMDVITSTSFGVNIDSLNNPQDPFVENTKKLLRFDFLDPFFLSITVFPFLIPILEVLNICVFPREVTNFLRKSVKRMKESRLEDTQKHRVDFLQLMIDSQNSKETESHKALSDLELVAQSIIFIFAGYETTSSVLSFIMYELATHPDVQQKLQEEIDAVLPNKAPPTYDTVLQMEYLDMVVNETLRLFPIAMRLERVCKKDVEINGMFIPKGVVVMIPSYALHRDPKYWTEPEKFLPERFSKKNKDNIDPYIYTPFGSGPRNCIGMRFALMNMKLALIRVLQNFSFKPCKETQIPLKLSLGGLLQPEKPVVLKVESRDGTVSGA

For orientation: Ki means a measure of affinity in units of concentration, obtained from inhibition or displacement. As to `C[C@@H](F)COc1ccc(C(=O)N2CCC(F)(F)/C(=C\C(=O)NCCO)c3cc(F)ccc32)c(C(F)(F)F)c1` [Example 55, (2Z)-N-(2-hydroxyethyl)-2-{4,4,7-trifluoro-1-[4-{[(2R)-2-fluoropropyl]oxy}-2-(trifluoromethyl)benzoyl]-1,2,3,4-tetrahydro-5H-1-benzazepin-5-ylidene}acetamide], the Ki in assay [1] amounted to 0.016 µM.

`CCCOc1ccc(C(=O)N2CCC(F)(F)/C(=C\C(=O)NCC(N)=O)c3cc(Cl)ccc32)c(C(F)(F)F)c1` [Example 24]: the inhibitory constant (Ki) in assay [1] was determined as 0.0043 µM.

A word on the IC50: it is the concentration at which inhibition is half-maximal. Take `C[C@H](F)COc1ccc(C(=O)N2CCC(F)(F)/C(=C\C(=O)NCCO)c3cc(F)ccc32)c(C(F)(F)F)c1` [Example 54, (2Z)-N-(2-hydroxyethyl)-2-{4,4,7-trifluoro-1-[4-{[(2S)-2-fluoropropyl]oxy}-2-(trifluoromethyl)benzoyl]-1,2,3,4-tetrahydro-5H-1-benzazepin-5-ylidene}acetamide]: the half-maximal inhibitory concentration (IC50) in assay [2] was 43 µM; in assay [3], above 50 µM. Also, the inhibitory constant (Ki) in assay [1] was found to be 0.017 µM.

For `CC(C)NC(=O)C[C@H]1CCCN(C(=O)c2ccc(N3CCCC3)cc2Cl)c2ccccc21` [Comparative compound, 2-[(5R)-1-(2-chloro-4-pyrrolidin-1-ylbenzoyl)-2,3,4,5-tetrahydrobenzazepin-5-yl]-N-isopropylacetamide, reference compound], the IC50 in assay [2] and in assay [3] was below 0.091 µM throughout.

For `CC(F)(F)COc1ccc(C(=O)N2CCC(F)(F)/C(=C\C(=O)NCCO)c3ccccc32)c(C(F)(F)F)c1` [Example 51, (2Z)-2-{1-[4-(2,2-difluoropropoxy)-2-(trifluoromethyl)benzoyl]-4,4-difluoro-1,2,3,4-tetrahydro-5H-1-benzazepin-5-ylidene}-N-(2-hydroxyethyl)acetamide], the IC50 in assay [2] was 34 µM; in assay [3] it was above 50 µM.

For the compound `C[C@@H](F)COc1ccc(C(=O)N2CCC(F)(F)/C(=C\C(=O)NCCC(N)=O)c3cc(F)ccc32)c(C(F)(F)F)c1` [Example 134, 3-[((2Z)-2-{4,4,7-trifluoro-1-[4-{[(2R)-2-fluoropropyl]oxy}-2-(trifluoromethyl)benzoyl]-1,2,3,4-tetrahydro-5H-1-benzazepin-5-ylidene}acetyl)amino]propanamide], the inhibitory constant (Ki) in assay [1] was 0.012 µM.

Take `C[C@@H](F)COc1ccc(C(=O)N2CCC(F)(F)/C(=C\C(=O)NCC(N)=O)c3cc(F)ccc32)c(C(F)(F)F)c1` [Example 31, (2Z)-N-(2-amino-2-oxoethyl)-2-{4,4,7-trifluoro-1-[4-{[(2R)-2-fluoropropyl]oxy}-2-(trifluoromethyl)benzoyl]-1,2,3,4-tetrahydro-5H-1-benzazepin-5-ylidene}acetamide]: in assay [1], the inhibition constant (Ki) was found to be 0.01 µM.

In the case of `CCCOc1ccc(C(=O)N2CCC(F)(F)/C(=C\C(=O)NCCO)c3cc(F)ccc32)c(C(F)(F)F)c1` [Example 46], in assay [1], the Ki turned out to be 0.0058 µM.

For `CCCN(C)c1ccc(C(=O)N2CCC(F)(F)/C(=C\C(=O)NCC(N)=O)c3ccccc32)c(C(F)(F)F)c1` [Example 14], in assay [1], the Ki was determined as 0.018 µM.

On to `CCCCOc1ccc(C(=O)N2CCC(F)(F)/C(=C\C(=O)NCC(N)=O)c3ccccc32)c(C(F)(F)F)c1` [Example 9], for which the half-inhibitory concentration (IC50) came to 11 µM in assay [2] and 13 µM in assay [3]. Moreover, the Ki in assay [1] came to 0.019 µM. Further, the “Urine excretion ratio (%) After 1 hour” value in assay [4] is recorded as 0%. Besides, in assay [4], the “Urine excretion ratio (%) After 2 hours” value is listed as 5.3%.

On to `C[C@@H](F)COc1ccc(C(=O)N2CCC(F)(F)/C(=C\C(=O)NC[C@H](O)CO)c3ccccc32)c(C(F)(F)F)c1` [Example 130, (2Z)-2-{4,4-difluoro-1-[4-{[(2R)-2-fluoropropyl]oxy}-2-(trifluoromethyl)benzoyl]-1,2,3,4-tetrahydro-5H-1-benzazepin-5-ylidene}-N-[(2S)-2,3-dihydroxypropyl]acetamide], for which the IC50 in assay [2] and in assay [3] was above 50 µM in each case.

Consider `C[C@@H](F)COc1ccc(C(=O)N2CCC(F)(F)/C(=C\C(=O)NC[C@@H](O)CO)c3cc(F)ccc32)c(C(F)(F)F)c1` [Example 136, (2Z)-N-[(2R)-2,3-dihydroxypropyl]-2-{4,4,7-trifluoro-1-[4-{[(2R)-2-fluoropropyl]oxy}-2-(trifluoromethyl)benzoyl]-1,2,3,4-tetrahydro-5H-1-benzazepin-5-ylidene}acetamide], for which the IC50 in assay [2] and in assay [3] was above 50 µM throughout. For the same compound, the inhibitory constant (Ki) in assay [1] amounted to 0.011 µM.

Consider `NC(=O)CNC(=O)/C=C1/c2ccccc2N(C(=O)c2ccc(OCC3CC3)cc2C(F)(F)F)CCC1(F)F` [Example 3], for which the IC50 in assay [2] and in assay [3] was above 50 µM in each case. Also, the inhibition constant (Ki) in assay [1] turned out to be 0.011 µM. Moreover, in assay [4], the “Urine excretion ratio (%) After 1 hour” value stood at 1.3%. The “Urine excretion ratio (%) After 2 hours” value in assay [4] is 6.2%.

In the case of `CCCOc1ccc(C(=O)N2CCC(F)(F)/C(=C\C(=O)Nc3cccc(O)c3)c3ccccc32)c(C(F)(F)F)c1` [Example 98], the Ki in assay [1] was 0.0062 µM.
